Results taken from patent publication US20100041665A1, “N-PHENYL-PRENYLAMINE DERIVATIVES FOR THE TREATMENT OF COGNITIVE, NEURODEGENERATIVE OR NEURONAL DISEASES OR DISORDERS” (NOSCIRA, S.A., priority 2006, published 2010).

What was measured:
[1] = biological target: Recombinant human glycogen synthase kinase 3 beta (Homo sapiens, UniProt P49841); experiment: GSK-3 beta inhibition assay; format: biochemical; conditions: percentage of enzyme activity; for remaining activity at 25 µM / remaining activity at 50 µM: 0.5 h
Chain of Recombinant human glycogen synthase kinase 3 beta (P49841 whole entry): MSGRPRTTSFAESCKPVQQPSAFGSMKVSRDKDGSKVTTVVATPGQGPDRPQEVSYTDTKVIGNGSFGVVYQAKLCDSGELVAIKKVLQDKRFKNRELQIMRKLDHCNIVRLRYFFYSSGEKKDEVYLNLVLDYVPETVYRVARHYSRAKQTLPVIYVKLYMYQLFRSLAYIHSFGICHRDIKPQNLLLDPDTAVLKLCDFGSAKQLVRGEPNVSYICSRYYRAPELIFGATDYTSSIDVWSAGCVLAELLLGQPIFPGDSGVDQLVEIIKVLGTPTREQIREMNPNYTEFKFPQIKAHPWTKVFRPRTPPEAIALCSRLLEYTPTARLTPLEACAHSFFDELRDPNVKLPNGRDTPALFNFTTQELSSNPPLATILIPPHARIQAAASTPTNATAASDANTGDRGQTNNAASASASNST
Procedure: GSK-3 beta Inhibition Assay
The GSK-3 beta activity of the compounds of formula (I) according to the present invention was determined by incubation of a mixture of recombinant human GSK-3 enzyme, a phosphate source and GSK-3 substrate in the presence and in the absence of the corresponding test compound, and by measuring the GSK-3 activity of this mixture. The compounds where tested at final concentrations of 25 and 50 μM.
Recombinant human glycogen synthase kinase 3 beta was assayed in MOPS 11 mM, pH 7.4, EDTA 0.2 mM, EGTA 1.25 mM, MgCl2 26.25 mM and sodium orthovanadate 0.25 mM in the presence of 62.5 μM of Phospho-Glycogen Synthase Peptide-2 (GS-2), 0.5 μCi gamma-^33P-ATP and unlabelled ATP at a final concentration of 12.5 μM. The final assay volume was 20 μl. After incubation for 30 minutes at 30° C., 15 μl aliquots were spotted onto P81 phosphocellulose papers. Filters were washed four times for at least 10 minutes each and counted with 1.5 ml of scintillation cocktail in a scintillation counter.
(§1) The compounds of formula (I) of the present invention where submitted to the above indicated assays, in order to determine both their GSK-3 inhibition activity and BACE activity inhibition. The results are indicated in Table I and Table II, in percentage of the respective enzyme activity.

[2] = biological target: T1, rhBACE-1 β-Secretase recombinant human (Homo sapiens, UniProt P56817); experiment: BACE assay (FRET); format: biochemical; conditions: percentage of enzyme activity
T1 construct: purchased R&D Systems 931-AS
T1 sequence (P56817 46-457 limits assumed): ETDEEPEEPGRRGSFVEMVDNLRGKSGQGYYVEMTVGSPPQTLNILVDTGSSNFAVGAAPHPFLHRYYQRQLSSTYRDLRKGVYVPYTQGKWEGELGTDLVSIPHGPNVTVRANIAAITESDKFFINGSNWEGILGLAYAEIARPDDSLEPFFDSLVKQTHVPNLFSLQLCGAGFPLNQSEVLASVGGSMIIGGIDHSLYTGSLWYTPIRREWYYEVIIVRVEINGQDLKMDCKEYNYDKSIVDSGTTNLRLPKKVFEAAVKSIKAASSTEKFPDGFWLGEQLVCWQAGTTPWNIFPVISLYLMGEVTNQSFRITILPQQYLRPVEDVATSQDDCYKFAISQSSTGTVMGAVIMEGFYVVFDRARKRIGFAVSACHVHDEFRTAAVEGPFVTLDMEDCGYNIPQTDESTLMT
From the text: The aim of this assay is to determine if a compound, either synthetic or of marine origin, is a BACE-1 inhibitor, to avoid the formation of Aβ. This assay is based on FRET technology (Fluorescence Resonance Energy Transfer). FRET is used to measure cleavage of a peptide substrate, among other uses. […] When a substrate peptide cleavage occurs, the energy balance is broken and all the donor fluorescence can be observed. The increase in fluorescence is linearly related to the rate of proteolysis (Gordon, G W et al., 1998). In this assay the reaction occurs between an enzyme, purified BACE-1, and a fluorogenic peptidic substrate who present the “Swedish mutation”. The peptide cleavage by BACE-1 produces fluorescence energy and enzymatic activity can be quantified.
The reagents which are used in this assay are the following: • rhBACE-1 β-Secretase recombinant human (R&D Systems. Ref. 931-AS). • Fluorogenic Peptide Substrate IV (R&D Systems. Ref. ES004). • Beta-SECRETASE INHIBITOR H-4848. (BACHEM. Ref. H-4848.0001). • Sodium acetate.
The assay is carried out in a 96 wells microplate. The final concentration of substrate is 3.5 μM per well, and the enzyme concentration is 0.5 μg/ml. The final volume of the assay is 100 μl per well and all reagents are diluted in Reaction Buffer. The compounds are tested at a concentration of 10^−5 and 10^−6 M. The control in the assay is the commercial inhibitor β-Secretase inhibitor H-4848 from BACHEM, which is tested at 300 nM. All the samples and controls are studied by duplicate.
The plate is mixed gently and changes in the fluorescence are measured using a fluorimeter plate reader, with 320 nm excitation filter and 405 nm emission filter. The temperature should be preferably maintained between 25 and 30° C. Measurements are carried out every ten minutes during an hour. The first measure is subtracted from the last to calculate the fluorescence increase, evaluating the enzymatic activity. The 100% activity is calculated as the mean of the results of wells without sample or inhibitor.
In the cases where abnormal effects in fluorescence were detected, BACE inhibition activity was assayed using BACE-1 (beta-Secretase) FRET ASSAY KIT (Invitrogen, Ref. P2985). Fluorescence was measured with a fluorimeter plate reader, with 544 nm excitation filter and 580 nm emission filter.
as §1

% GSK-3 beta activity ([1]; compound at 25 μM) [%] | % GSK-3 beta activity ([1]; compound at 50 μM) [%] | % of BACE activity ([2]; compound at 1 μM) [%] | % of BACE activity ([2]; compound at 10 μM) [%] | remaining activity at 25 µM ([1]; compound at 25 μM) [%] | remaining activity at 50 µM ([1]; compound at 50 μM) [%] | SMILES
17.31 | 0.17 | 48 ± 6 | 33 ± 7 | – | – | COC(=O)c1ccc(OC)c(N(C/C=C(\C)CCC=C(C)C)C/C=C(\C)CCC=C(C)C)c1 [Compound 30]
– | – | 100 | 36.5 ± 0.7 | 105 | 97.9 | CC(C)=CCC/C(C)=C/CC/C(C)=C/CNc1cc(C(=O)O)ccc1O [Compound 48]
– | – | 88.3 ± 3.8 | 27.5 ± 9.2 | 103 | 98.2 | CCCOc1ccc(C(=O)OC)cc1NC/C=C(\C)CC/C=C(\C)CCC=C(C)C [Compound 43]
– | – | 83 ± 12 | 40.5 ± 19 | 48.5 | 20.7 | COC(=O)c1ccc(O)c(N(CC=C(C)CCC=C(C)CCC=C(C)C)CC=C(C)CCC=C(C)CCC=C(C)C)c1 [Compound 28, 3-[Bis-(3,7,11-trimethyl-dodeca-2,6,10-trienyl)-amino]-4-hydroxy-benzoic acid methyl ester]
– | – | 89.5 ± 9 | 25.5 ± 6 | 84.1 | 39.6 | CC(C)=CCC/C(C)=C/CC/C(C)=C/CNc1cccc(C(=O)O)c1 [Compound 9]
73.2 | 42.14 | 43 ± 15 | 0 | – | – | COC(=O)c1ccc(OC)c(N(C/C=C(\C)CCC=C(C)C)C/C=C(\C)CCC=C(C)C)c1 [Compound 17]
– | – | 41 ± 12 | 0 | 37.4 | 21.6 | CC(C)=CCC/C(C)=C/CC/C(C)=C/CN(C/C=C(\C)CC/C=C(\C)CCC=C(C)C)c1cccc(C(=O)O)c1 [Compound 23]
– | – | 88.5 ± 0.7 | 51 ± 16 | 90.7 | 59.6 | COc1ccccc1N(C/C=C(\C)CCC=C(C)C)C/C=C(\C)CCC=C(C)C [Compound 27]
– | – | 76 ± 25 | 3 ± 5 | 67.3 | 36.2 | COC(=O)c1cccc(N(CC=C(C)CCC=C(C)C)CC=C(C)CCC=C(C)C)c1 [Compound 20, 3-[Bis-(3,7-dimethyl-octa-2,6-dienyl)-amino]-benzoic acid methyl ester]
– | – | – | – | 34.7 | 19.1 | COc1ccc(C(=O)/N=C(\N)NCCO)cc1N(C/C=C(\C)CCC=C(C)C)C/C=C(\C)CCC=C(C)C [Compound 47]
– | – | – | – | 106 | 110 | COc1ccc(C(=O)NCCCO)cc1N(C/C=C(\C)CCC=C(C)C)C/C=C(\C)CCC=C(C)C [Compound 42]
– | – | 60 ± 17 | 4 ± 6 | 61.8 | 25.4 | COCOc1ccc(C(=O)OC)cc1NC/C=C(\C)CC/C=C(\C)CCC=C(C)C [Compound 14]
– | – | – | – | 79.6 | 8.26 | CCCOc1ccc(C(=O)OC)cc1N(C/C=C(\C)CC/C=C(\C)CCC=C(C)C)CCC [Compound 44]
– | – | 24 ± 12 | 1.6 ± 2 | 37.4 | 24.6 | CC(C)=CCC/C(C)=C/CN(C/C=C(\C)CCC=C(C)C)c1cccc(C(=O)O)c1 [Compound 24]
– | – | 50 ± 9 | 0 | 70.2 | 52.8 | COc1ccc(C(=O)O)cc1NC/C=C(\C)CC/C=C(\C)CCC=C(C)C [Compound 5]
– | – | 75 ± 5 | 70 ± 19 | 55.5 | 35.5 | CC(C)=CCCC(C)=CCNc1cccc(C(=O)O)c1 [Compound 13, 3-(3,7-Dimethyl-octa-2,6-dienylamino)-benzoic acid]
– | – | 122.5 ± 23.3 | 115.5 ± 29 | 27.9 | 19.8 | COc1ccc(C(=O)NCCc2c[nH]cn2)cc1N(C/C=C(\C)CCC=C(C)C)C/C=C(\C)CCC=C(C)C [Compound 46]
– | – | 2.5 ± 3.5 | 0 ± 0 | 71.3 | 40.4 | COC(=O)c1ccc(O)c(N(C/C=C(\C)CCC=C(C)C)C/C=C(\C)CCC=C(C)C)c1 [Compound 29]
– | – | 73 ± 2 | 75 ± 9 | 88.9 | 98.4 | COc1ccc(C(=O)NC(=N)n2cccn2)cc1N(C/C=C(\C)CCC=C(C)C)C/C=C(\C)CCC=C(C)C [Compound 41]
– | – | 0 | 0 | – | 54.7 | COC(=O)c1cccc(NC/C=C(\C)CC/C=C(\C)CCC=C(C)C)c1 [Compound 7]
– | – | 100 | 100 | 56.6 | 5.35 | COC(=O)c1ccc(OC)c(N(C/C=C(\C)CC/C=C(\C)CCC=C(C)C)C/C=C(\C)CC/C=C(\C)CCC=C(C)C)c1 [Compound 18]
– | – | 100 | 100 | 34.7 | 19.1 | COC(=O)c1ccc(OC)c(NCC=C(C)CCC=C(C)CCC=C(C)CCC=C(C)C)c1 [Compound 34, 4-Methoxy-3-(3,7,11,15-tetramethyl-hexadeca-2,6,10,14-tetraenylamino)-benzoic acid methyl ester]
– | – | 50 ± 4 | 6.5 ± 1 | 24.6 | 1.71 | COC(=O)c1ccc(OC)c(N(CC=C(C)CCC=C(C)COC2CCCCO2)CC=C(C)CCC=C(C)COC2CCCCO2)c1 (centres unmarked) [Compound 37, 3-{Bis-[3,7-dimethyl-8-(tetrahydro-pyran-2-yloxy)-octa-2,6-dienyl]-amino}-4-methoxy-benzoic acid methyl ester]
– | – | – | – | 125 | 111 | COc1ccc(C(=O)/N=C(\N)NCCCO)cc1N(C/C=C(\C)CCC=C(C)C)C/C=C(\C)CCC=C(C)C [Compound 45]

SMILES | % GSK-3 beta activity ([1]; compound at 25 μM) [%] | % GSK-3 beta activity ([1]; compound at 50 μM) [%] | % of BACE activity ([2]; compound at 1 μM) [%] | % of BACE activity ([2]; compound at 10 μM) [%] | remaining activity at 25 µM ([1]; compound at 25 μM) [%] | remaining activity at 50 µM ([1]; compound at 50 μM) [%]
CCC(C)Oc1ccc(C(=O)OC)cc1NCC=C(C)CCC=C(C)CCC=C(C)C (centres unmarked) [Compound 40, 4-sec-Butoxy-3-(3,7,11-trimethyl-dodeca-2,6,10-trienylamino)-benzoic acid methyl ester] | – | – | 100 | 100 | 111 | 99.4
COC(=O)c1ccc(OC)c(N(CC=C(C)CCC=C(C)CCC=C(C)C)C(=O)OC(C)(C)C)c1 [Compound 33, 3-[tert-Butoxycarbonyl-(3,7,11-trimethyl-dodeca-2,6,10-trienyl)-amino]-4-methoxy-benzoic acid methyl ester] | – | – | 92 ± 4 | 61 ± 17 | 27.9 | 19.8
